Target: T1, GAL4-PPARγ chimeric receptor (ligand-binding domain of human PPARγ) (Homo sapiens, UniProt P37231)
T1 construct: expressed in transfected cells; host or cells: COS-7 (monkey kidney)
Assay: Measurement of PPARγ activation effect/modulator activity (GAL4-PPARγ luciferase reporter assay in COS-7 cells)
Format: cell-based
Details: for Emax: COS-7, maximum luciferase activity, rosiglitazone positive control = 100%, DMSO control = 0%; for EC50: COS-7 cells transfected with pM-PPARγ and pFR-Luc, concentration giving Emax/2
Procedure: A test was carried out according to the reporter assay method with reference to a report by Kliewer et al. (Journal of Biological Chemistry, 1995, Vol. 270 (22), p. 12953-12956) as a method for measuring the ability of a compound to activate PPARγ (hereinafter PPARγ activation effect/modulator activity). Commercially available reagents and kits were used according to the attached instructions. The details will be shown below.
The ligand-binding domain of human PPARγ (corresponding to about 300 amino acids at the carboxy end) was bound to the DNA-binding domain of the yeast transcription factor GAL4 (corresponding to 147 amino acids at the amino end) with reference to the report by Kliewer et al. to prepare a gene expressing a GAL4-PPARγ receptor.
The plasmid pM-PPARγ obtained by the above operation includes the nucleotide sequence represented by SEQ ID NO: 4 of the Sequence Listing and encodes an amino acid sequence represented by SEQ ID NO: 5 of the Sequence Listing containing amino acids 1 to 147 of the yeast transcription factor GAL4 at the amino end and containing amino acids 175 to 475 of human PPARγ and a stop codon at the carboxy end. The plasmid is a gene that can express a GAL4-PPARγ chimeric receptor in mammalian cells.
The previously acquired plasmid pM-PPARγ and the plasmid pFR-Luc purchased from Stratagene Cloning Systems, Inc. were dissolved in deionised water at a concentration of 1 mg/mL each.
The monkey kidney-derived cell line COS-7 (American Type Culture Collection CRL-1651) was seeded into a 75 cm^2 culture flask and cultured using Dulbecco's modified Eagle's medium containing 10% fetal bovine serum (hereinafter medium) under the conditions of 37° C. and 5% carbon dioxide gas until an approximately 80% confluent state was obtained.
COS-7 cells were transfected with 4.8 micrograms per flask of the plasmid pM-PPARγ and 19.2 μg per flask of the plasmid pFR-Luc using Lipofectamine 2000 transfection reagent (manufactured by Invitrogen Corporation), and the cells were cultured overnight.
On the following day, the cells were harvested by trypsin treatment, suspended in 75 mL of phenol red-free Dulbecco's modified Eagle's medium containing 10% fetal bovine serum, seeded into a white 96-well plate (manufactured by Costar) using the medium in a volume of 95 μL per well, and cultured overnight.
The test compound was dissolved in dimethyl sulfoxide at a concentration of 4 mM. The solution was serially diluted 3.3-fold with dimethyl sulfoxide to prepare solutions of the compound at concentrations up to 400 nM. Dimethyl sulfoxide was prepared for the control group. Rosiglitazone dissolved in dimethyl sulfoxide at a concentration of 4 mM was prepared for the positive control group. They were diluted 20-fold with the medium, and 5 μL of the dilution was added to the wells in which the cells were grown. The concentrations of the test compound treating the cells ranged from 10 μM to 1 nM. After the addition, the cells were cultured overnight.
On the following day, the medium was removed, and Luc Lite (manufactured by PerkinElmer Inc.) was prepared according to the attached document and added at 50 microliters per well. The plate with cells in the Luc Lite was stirred for about 30 minutes. The amount of luminescence in each well was measured as luciferase activity using Analyst (Molecular Devices) for 0.5 second. A dose-dependent curve was drawn.

T1 sequence (P37231 with tags, fused parts or gaps): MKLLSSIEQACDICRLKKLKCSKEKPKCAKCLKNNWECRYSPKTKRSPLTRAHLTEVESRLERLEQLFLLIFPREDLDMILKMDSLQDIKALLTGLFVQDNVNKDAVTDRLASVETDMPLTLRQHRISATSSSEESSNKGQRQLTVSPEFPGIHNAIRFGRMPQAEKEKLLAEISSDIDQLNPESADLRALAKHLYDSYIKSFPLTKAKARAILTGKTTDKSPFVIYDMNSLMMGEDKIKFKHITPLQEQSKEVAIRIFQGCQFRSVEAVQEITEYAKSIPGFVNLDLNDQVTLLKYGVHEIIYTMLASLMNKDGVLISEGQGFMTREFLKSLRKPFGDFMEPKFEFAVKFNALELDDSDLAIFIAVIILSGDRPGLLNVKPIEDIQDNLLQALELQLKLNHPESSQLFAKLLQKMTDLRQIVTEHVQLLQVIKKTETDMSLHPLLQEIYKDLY

Structure (SMILES)	Emax [%]	EC50 [pM]
Cc1cc(F)cnc1Oc1ccc2nc(COc3cccc(C(=O)O)c3)n(C)c2c1 [Reference Example 8, 3-({6-[(5-Fluoro-3-methylpyridin-2-yl)oxy]-1-methyl-1H-benzimidazol-2-yl}methoxy)benzoic acid]	100	100000
Cc1cnc(Oc2ccc3nc(COc4cccc(C(=O)O)c4)n(C)c3c2)c(F)c1 [Reference Example 9, 3-({6-[(3-Fluoro-5-methylpyridin-2-yl)oxy]-1-methyl-1H-benzimidazol-2-yl}methoxy)benzoic acid]	74	43000
CCc1cnc(Oc2ccc3nc(COc4cccc(C(=O)O)c4)n(C)c3c2)c(C)c1 [Reference Example 11, 3-({6-[(5-Ethyl-3-methylpyridin-2-yl)oxy]-1-methyl-1H-benzimidazol-2-yl}methoxy)benzoic acid]	82	260000
CCc1cc(C)cnc1Oc1ccc2nc(COc3cccc(C(=O)O)c3)n(C)c2c1 [Reference Example 12, 3-({6-[(3-Ethyl-5-methylpyridin-2-yl)oxy]-1-methyl-1H-benzimidazol-2-yl}methoxy)benzoic acid]	83	71000
COc1c(C)cnc(Oc2ccc3nc(COc4cccc(C(=O)O)c4)n(C)c3c2)c1C [Reference Example 14, 3-({6-[(4-Methoxy-3,5-dimethylpyridin-2-yl)oxy]-1-methyl-1H-benzimidazol-2-yl}methoxy)benzoic acid]	67	69000
Cc1cc(C)c(Oc2ccc3nc(COc4cccc(C(=O)O)c4)n(C)c3c2)nc1C [Reference Example 15, 3-({1-Methyl-6-[(3,5,6-trimethylpyridin-2-yl)oxy]-1H-benzimidazol-2-yl}methoxy)benzoic acid]	94	120000

From patent US20130204009A1, “PROCESS FOR PREPARING BENZOIC ACID ESTERS” (Daiichi Sankyo Company, Limited, priority 2010, published 2013)
